Test system: CA20948 Tumor Model (neuroendocrine tumor cells)
Experiment: In vivo therapy of PRRT +/- Olaparib, CA20948 tumor model
Design: species or system BALB-c immunocompromised mice
Excerpt: FIG. 1 : In vivo therapy of PRRT +/− Olaparib. The FIG. 1A presents the tumor volume after injection in the presence of the vehicle (square), olaparib alone (full circle), PRRT alone (empty circle) or in combination with PARP inhibitor (triangle). The survival proportions are also shown in FIG. 1B after injection in the presence of the vehicle, olaparib alone, PRRT alone or in combination with PARP inhibitor.
Combination therapies using CA20948 Tumor Model
We have xenografted BALB-c immunocompromised mice with neuroendocrine tumor cells. To increase the window of opportunity, we have started PARP inhibitor administration two days prior to PRRT injection for in total 14 days.

Compound: Lutetium (177Lu) oxodotreotide [PRRT]
- speed of tumor regrowth (PRRT versus PRRT+olaparib groups): the same in both groups
- start of tumor shrinkage (after injection, xenografted mice, PARP inhibitor started two days prior to PRRT injection, in total 14 days): 3 days

Compound: O=C(c1cc(Cc2n[nH]c(=O)c3ccccc23)ccc1F)N1CCN(C(=O)C2CC2)CC1 [olaparib, Olaparib]
- effect on survival (compared to vehicle): No effect
- effect on tumor growth (compared to vehicle): No effect

Source: patent US20210346527A1, “Combination Therapy” (Advanced Accelerator Applications (Italy) SRL, priority 2018, published 2021)
